Assay results reported in patent US20250221988A1 (Cullgen (Shanghai), Inc., priority 2022, published 2025).
pIC50: −log10 of the molar value. Where two headings read alike, the source gives them in different places.

Tests used:
[1] = test system: MV4;11 cells; experiment: Cell viability assay (CellTiter-Glo) in MV4;11 cells; type: cell-based; conditions: read-out: MV4; for pIC50: compound alone, 11 IC50
Outline: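 5000 cells/well in RPMI 1640 or DMEM with 10% FBS, treated with 8- or 12-point 3-fold compound dilutions, with or without gilteritinib (10 nM for MV4;11, 20 nM for MOLM-13). Viability by CellTiter-Glo after three days; IC50 by nonlinear least-squares regression.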

[2] = test system: MOLM-13 cells; experiment: Cell viability assay (CellTiter-Glo) in MOLM-13 cells; type: cell-based; conditions: for pIC50: 72 h, compound alone, read-out: MOLM-13 IC50
[3] = Homo sapiens, MV4-11, 72 h, MV4;11 cells, three days
[4] = MV4;11 cells, with 10 nM gilteritinib, three days, 11 IC50 (nM) + 10 nM Gil
[5] = Homo sapiens, MOLM-13 cells, three days
[6] = MOLM-13 cells, with gilteritinib, three days, read-out: MOLM-13 IC50 (nM) + 10 nM Gil

pIC50 [1, 3]	IC50 [1, 4]	pIC50 [2, 5]	IC50 [2, 6]	Structure (SMILES)	IC50 ([1]; Homo sapiens, MV4-11, 72 h, 11 IC50 (nM))	IC50 ([1]; 11 IC50 (nM) + 10 nM Gil, MV4;11 cells, with 10 nM gilteritinib, three days)	IC50 ([2]; Homo sapiens, MOLM-13, 72 h, read-out: MOLM-13 IC50 (nM))	IC50 ([2]; read-out: MOLM-13 IC50 (nM) + 10 nM Gil, MOLM-13 cells, with gilteritinib, three days)
7.00 to 8.00	10 to 100 nM	7.00 to 8.00	10 to 100 nM	CN1CCC(n2ncc3cnc(-c4cn([C@H]5C[C@H](CNc6ccc7c(c6)C(=O)N(C6CCC(=O)NC6=O)C7=O)C5)nc4C4CC4)cc32)CC1 (stereo partly drawn) [GS-770, 5-(((Trans-3-(3-cyclopropyl-4-(1-(1-methylpiperidin-4-yl)-1H-pyrazolo[4,3-c]pyridin-6-yl)-1H-pyrazol-1-yl)cyclobutyl)methyl)amino)-2-(2,6-dioxopiperidin-3-yl)isoindoline-1,3-dione]	–	–	–	–
7.00 to 8.00	10 to 100 nM	7.00 to 8.00	< 10 nM	O=C1CCC(N2C(=O)c3ccc(NC[C@H]4C[C@H](n5cc(-c6ncccc6[C@H]6C[C@H](O)C6)c(C6CC6)n5)C4)cc3C2=O)C(=O)N1 (stereo partly drawn) [GS-772]	–	–	–	–
7.00 to 8.00	< 10 nM	7.00 to 8.00	< 10 nM	N[C@H]1C[C@H](n2ncc3cnc(-c4cn([C@H]5C[C@H](CNc6ccc7c(c6)C(=O)N(C6CCC(=O)NC6=O)C7=O)C5)nc4C4CC4)cc32)C1 (stereo partly drawn) [GS-776, 5-(((Trans-3-(4-(1-(trans-3-aminocyclobutyl)-1H-pyrazolo[4,3-c]pyridin-6-yl)-3-cyclopropyl-1H-pyrazol-1-yl)cyclobutyl)methyl)amino)-2-(2,6-dioxopiperidin-3-yl)isoindoline-1,3-dione]	–	–	–	–
7.00 to 8.00	< 10 nM	7.00 to 8.00	< 10 nM	N[C@H]1C[C@@H](n2ncc3cnc(-c4cn([C@H]5C[C@H](CNc6ccc7c(c6)C(=O)N(C6CCC(=O)NC6=O)C7=O)C5)nc4C4CC4)cc32)C1 (stereo partly drawn) [GS-778, 5-(((Trans-3-(4-(1-(cis-3-aminocyclobutyl)-1H-pyrazolo[4,3-c]pyridin-6-yl)-3-cyclopropyl-1H-pyrazol-1-yl)cyclobutyl)methyl)amino)-2-(2,6-dioxopiperidin-3-yl)isoindoline-1,3-dione]	–	–	–	–
7.00 to 8.00	< 10 nM	6.00 to 7.00	10 to 100 nM	Cn1ncc2cncc(-c3cn([C@H]4C[C@H](CNc5ccc6c(c5)C(=O)N(C5CCC(=O)NC5=O)C6=O)C4)nc3C3CC3)c21 (stereo partly drawn) [GS-781, 5-(((Trans-3-(3-cyclopropyl-4-(1-methyl-1H-pyrazolo[4,3-c]pyridin-7-yl)-1H-pyrazol-1-yl)cyclobutyl)methyl)amino)-2-(2,6-dioxopiperidin-3-yl)isoindoline-1,3-dione]	–	–	–	–
> 8.00	< 10 nM	7.00 to 8.00	< 10 nM	O=C1CCC(N2C(=O)c3ccc(NC[C@H]4C[C@H](n5cc(-c6cc7c(cn6)cnn7[C@H]6CC[C@@H](O)CC6)c(C6CC6)n5)C4)cc3C2=O)C(=O)N1 (stereo partly drawn) [GS-782]	–	–	–	–
> 8.00	< 10 nM	7.00 to 8.00	< 10 nM	N[C@H]1C[C@@H](n2cc3cnc(-c4cn([C@H]5C[C@H](CNc6ccc7c(c6)C(=O)N(C6CCC(=O)NC6=O)C7=O)C5)nc4C4CC4)cc3n2)C1 (stereo partly drawn) [GS-785, 5-(((Trans-3-(4-(2-(cis-3-aminocyclobutyl)-2H-pyrazolo[4,3-c]pyridin-6-yl)-3-cyclopropyl-1H-pyrazol-1-yl)cyclobutyl)methyl)amino)-2-(2,6-dioxopiperidin-3-yl)isoindoline-1,3-dione]	–	–	–	–
> 8.00	< 10 nM	7.00 to 8.00	< 10 nM	N[C@H]1C[C@H](n2cc3cnc(-c4cn([C@H]5C[C@H](CNc6ccc7c(c6)C(=O)N(C6CCC(=O)NC6=O)C7=O)C5)nc4C4CC4)cc3n2)C1 (stereo partly drawn) [GS-786, 5-(((Trans-3-(4-(2-(trans-3-aminocyclobutyl)-2H-pyrazolo[4,3-c]pyridin-6-yl)-3-cyclopropyl-1H-pyrazol-1-yl)cyclobutyl)methyl)amino)-2-(2,6-dioxopiperidin-3-yl)isoindoline-1,3-dione]	–	–	–	–
> 8.00	< 10 nM	> 8.00	< 10 nM	O=C1CCC(N2C(=O)c3ccc(NC[C@H]4C[C@H](n5cc(-c6cc7nn([C@H]8CC[C@H](O)CC8)cc7cn6)c(C6CC6)n5)C4)cc3C2=O)C(=O)N1 (stereo partly drawn) [GS-789, 5-(((Trans-3-(3-cyclopropyl-4-(2-(trans-4-hydroxycyclohexyl)-2H-pyrazolo[4,3-c]pyridin-6-yl)-1H-pyrazol-1-yl)cyclobutyl)methyl)amino)-2-(2,6-dioxopiperidin-3-yl)isoindoline-1,3-dione]	–	–	–	–

Second part, the molecule before the results:

Structure (SMILES)	pIC50 [1, 3]	IC50 [1, 4]	pIC50 [2, 5]	IC50 [2, 6]	IC50 ([1]; Homo sapiens, MV4-11, 72 h, 11 IC50 (nM))	IC50 ([1]; 11 IC50 (nM) + 10 nM Gil, MV4;11 cells, with 10 nM gilteritinib, three days)	IC50 ([2]; Homo sapiens, MOLM-13, 72 h, read-out: MOLM-13 IC50 (nM))	IC50 ([2]; read-out: MOLM-13 IC50 (nM) + 10 nM Gil, MOLM-13 cells, with gilteritinib, three days)
O=C1CCC(N2C(=O)c3ccc(NC[C@H]4C[C@H](n5cc(-c6ncccc6[C@H]6C[C@@H](O)C6)c(C6CC6)n5)C4)cc3C2=O)C(=O)N1 (stereo partly drawn) [GS-771]	7.00 to 8.00	< 10 nM	7.00 to 8.00	10 to 100 nM	–	–	–	–
Cn1cc(Nc2cn([C@H]3C[C@H](CNc4ccc5c(c4)C(=O)N(C4CCC(=O)NC4=O)C5=O)C3)nc2C2CC2)cn1 (stereo partly drawn) [GS-773, 5-(((Trans-3-(3-cyclopropyl-4-((1-methyl-1H-pyrazol-4-yl)amino)-1H-pyrazol-1-yl)cyclobutyl)methyl)amino)-2-(2,6-dioxopiperidin-3-yl)isoindoline-1,3-dione]	> 8.00	< 10 nM	7.00 to 8.00	< 10 nM	–	–	–	–
Cc1cccc(-c2cn(C3CC4(CC(C(=O)NCc5ccc6c(c5)C(=O)N(C5CCC(=O)NC5=O)C6=O)C4)C3)nc2C2CC2)n1 (stereo not drawn) [GS-774, 6-(3-Cyclopropyl-4-(6-methylpyridin-2-yl)-1H-pyrazol-1-yl)-N-((2-(2,6-dioxopiperidin-3-yl)-1,3-dioxoisoindolin-5-yl)methyl)spiro[3.3]heptane-2-carboxamide]	6.00 to 7.00	10 to 100 nM	< 6.00	100 to 1000 nM	–	–	–	–
Cc1cccc(-c2cn(C3CC4(CC(CNc5ccc6c(c5)C(=O)N(C5CCC(=O)NC5=O)C6=O)C4)C3)nc2C2CC2)n1 (stereo not drawn) [GS-775]	6.00 to 7.00	100 to 1000 nM	< 6.00	100 to 1000 nM	–	–	–	–
O=C1CCC(N2C(=O)c3ccc(NC[C@H]4C[C@H](n5cc(-n6ncc7cccnc76)c(C6CC6)n5)C4)cc3C2=O)C(=O)N1 (stereo partly drawn) [GS-777, 5-(((Trans-3-(3-cyclopropyl-4-(1H-pyrazolo[3,4-b]pyridin-1-yl)-1H-pyrazol-1-yl)cyclobutyl)methyl)amino)-2-(2,6-dioxopiperidin-3-yl)isoindoline-1,3-dione]	> 8.00	< 10 nM	7.00 to 8.00	< 10 nM	–	–	–	–
O=C1CCC(N2C(=O)c3ccc(NC[C@H]4C[C@H](n5cc(-c6ccc7c(n6)C(O)CC7)c(C6CC6)n5)C4)cc3C2=O)C(=O)N1 (stereo partly drawn) [GS-780, 5-(((Trans-3-(3-cyclopropyl-4-(7-hydroxy-6,7-dihydro-5H-cyclopenta[b]pyridin-2-yl)-1H-pyrazol-1-yl)cyclobutyl)methyl)amino)-2-(2,6-dioxopiperidin-3-yl)isoindoline-1,3-dione]	7.00 to 8.00	< 10 nM	7.00 to 8.00	< 10 nM	–	–	–	–
O=C1CCC(N2C(=O)c3ccc(NCCC4CC5(C4)CC(n4nc(C6CC6)c6ccccc64)C5)cc3C2=O)C(=O)N1 (stereo not drawn) [GS-783, 5-((2-(6-(3-Cyclopropyl-1H-indazol-1-yl)spiro[3.3]heptan-2-yl)ethyl)amino)-2-(2,6-dioxopiperidin-3-yl)isoindoline-1,3-dione]	7.00 to 8.00	10 to 100 nM	7.00 to 8.00	10 to 100 nM	–	–	–	–
Cn1nccc1Nc1cn([C@H]2C[C@H](CNc3ccc4c(c3)C(=O)N(C3CCC(=O)NC3=O)C4=O)C2)nc1C1CC1 (stereo partly drawn) [GS-784, 5-(((Trans-3-(3-cyclopropyl-4-((1-methyl-1H-pyrazol-5-yl)amino)-1H-pyrazol-1-yl)cyclobutyl)methyl)amino)-2-(2,6-dioxopiperidin-3-yl)isoindoline-1,3-dione]	6.00 to 7.00	10 to 100 nM	6.00 to 7.00	100 to 1000 nM	–	–	–	–
Cc1nc(-c2cn([C@H]3C[C@H](COc4ccc5c(c4)CN(C4CCC(=O)NC4=O)C5=O)C3)nc2C2CC2)ccc1F (stereo partly drawn) [GS-787, 3-(5-((Trans-3-(3-cyclopropyl-4-(5-fluoro-6-methylpyridin-2-yl)-1H-pyrazol-1-yl)cyclobutyl)methoxy)-1-oxoisoindolin-2-yl)piperidine-2,6-dione]	< 6.00	–	< 6.00	–	–	–	–	–
Cn1cc2c(-c3cn([C@H]4C[C@H](CNc5ccc6c(c5)C(=O)N(C5CCC(=O)NC5=O)C6=O)C4)nc3C3CC3)ncc(F)c2n1 (stereo partly drawn) [GS-790, 5-(((Trans-3-(3-cyclopropyl-4-(7-fluoro-2-methyl-2H-pyrazolo[4,3-c]pyridin-4-yl)-1H-pyrazol-1-yl)cyclobutyl)methyl)amino)-2-(2,6-dioxopiperidin-3-yl)isoindoline-1,3-dione]	> 8.00	< 10 nM	7.00 to 8.00	< 10 nM	–	–	–	–
CC(C)n1ncc2c(-c3cn([C@H]4C[C@H](CNc5ccc6c(c5)C(=O)N(C5CCC(=O)NC5=O)C6=O)C4)nc3C3CC3)ncc(F)c21 (stereo partly drawn) [GS-791, 5-(((Trans-3-(3-Cyclopropyl-4-(7-fluoro-1-isopropyl-1H-pyrazolo[4,3-c]pyridin-4-yl)-1H-pyrazol-1-yl)cyclobutyl)methyl)amino)-2-(2,6-dioxopiperidin-3-yl)isoindoline-1,3-dione]	–	–	–	–	< 10 nM	< 10 nM	10 to 100 nM	10 to 100 nM
